The source of these data is patent US8168592B2 (Amgen Inc., priority 2005, dated 2012).

As a reminder, the IC50 is the concentration at which inhibition is half-maximal.

Square brackets hold non-standard residues; d marks the D form. Peptide text beside a SMILES is read from it. Oic = O=C(O)[C@@H]1C[C@@H]2CCCC[C@@H]2N1; 2Nal = N[C@@H](Cc1ccc2ccccc2c1)C(=O)O; hArg = N=C(N)NCCCC[C@H](N)C(=O)O; Tic = O=C(O)[C@@H]1Cc2ccccc2CN1; Cit = NC(=O)NCCC[C@H](N)C(=O)O

T1 sequence (Q16602 23-461): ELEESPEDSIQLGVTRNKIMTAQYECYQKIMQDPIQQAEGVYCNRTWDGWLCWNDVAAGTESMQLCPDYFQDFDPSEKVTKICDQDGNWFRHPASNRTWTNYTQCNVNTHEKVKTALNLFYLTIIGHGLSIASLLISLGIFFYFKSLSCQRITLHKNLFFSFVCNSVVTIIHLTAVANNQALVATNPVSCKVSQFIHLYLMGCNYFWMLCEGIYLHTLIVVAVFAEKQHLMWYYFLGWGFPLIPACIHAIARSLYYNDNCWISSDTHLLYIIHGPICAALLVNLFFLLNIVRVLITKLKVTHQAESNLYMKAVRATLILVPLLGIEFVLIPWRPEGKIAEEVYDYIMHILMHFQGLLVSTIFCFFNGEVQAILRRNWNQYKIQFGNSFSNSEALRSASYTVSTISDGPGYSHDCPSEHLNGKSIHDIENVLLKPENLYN
T1 sequence (O60894 27-148): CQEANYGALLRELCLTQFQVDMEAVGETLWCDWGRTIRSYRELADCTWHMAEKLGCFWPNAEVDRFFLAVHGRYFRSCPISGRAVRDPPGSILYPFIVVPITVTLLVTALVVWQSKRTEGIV

One assay concerns the target T1, CGRP1 receptor (Homo sapiens, UniProt O60894+Q16602).
T1 construct: SK-N-MC cells express CRLR and RAMP1, which form CGRP1 receptor; endogenous in cells; host or cells: SK-N-MC human neuroblastoma cells
Description: in vitro CGRP1 receptor mediated cAMP assay in SK-N-MC cells. The class given is cell-based.
Conditions: not given
The procedure: The in vitro cAMP assay employed a human neuroblastoma-derived cell line (SK-N-MC). SK-N-MC cells express CRLR and RAMP1, which form CGRP1 receptor. CGRP1 receptor is a G-protein coupled receptor linked to the stimulatory G-protein, Gs. […] Briefly, two days before the assay, the cells were plated in 96-well plates in growth medium. On the day of the assay cells were rinsed with PBS followed by the addition of 60 μl of plasma free medium for 15 minutes at room temperature. […] The medium was then removed and the cells were lysed with 100 μl lysis buffer for 30 minutes at 37° C. for 30 minutes. Using a Tropix ELISA kit (Applied Biosystems, Foster City, Calif.), a cAMP-AP conjugate was diluted (1:100) and added (30 μl) to each well of a 96-well ELISA plate. An aliquot of the lysis buffer from the cell plate was then added to the ELISA plate followed by an aliquot of the cAMP antibody. This mixture was incubated for 1 hour at room temperature with gentle shaking. The ELISA plate was then washed 6× with wash buffer followed by the additions of a substrate enhancer. This mixture was incubated for 30 minutes at room temperature and then read on a MicroBeta Jet or EnVision plate reader. The results were analyzed using Prism (GraphPad).
In the case of “SEQ ID NO:41 (Ac-WVTHRLAGLLS[dR]SGGVVRCNFVPTDVGPFAF-NH2; SMILES CC(=O)N[C@@H](Cc1c[nH]c2ccccc12)C(=O)N[C@H](C(=O)N[C@H](C(=O)N[C@@H](Cc1c[nH]cn1)C(=O)N[C@@H](CCCNC(=N)N)C(=O)N[C@@H](CC(C)C)C(=O)N[C@@H](C)C(=O)NCC(=O)N[C@@H](CC(C)C)C(=O)N[C@@H](CC(C)C)C(=O)N[C@@H](CO)C(=O)N[C@H](CCCNC(=N)N)C(=O)N[C@@H](CO)C(=O)NCC(=O)NCC(=O)N[C@H](C(=O)N[C@H](C(=O)N[C@@H](CCCNC(=N)N)C(=O)N[C@@H](CS)C(=O)N[C@@H](CC(N)=O)C(=O)N[C@@H](Cc1ccccc1)C(=O)N[C@H](C(=O)N1CCC[C@H]1C(=O)N[C@H](C(=O)N[C@@H](CC(=O)O)C(=O)N[C@H](C(=O)NCC(=O)N1CCC[C@H]1C(=O)N[C@@H](Cc1ccccc1)C(=O)N[C@@H](C)C(=O)N[C@@H](Cc1ccccc1)C(N)=O)C(C)C)[C@@H](C)O)C(C)C)C(C)C)C(C)C)[C@@H](C)O)C(C)C)”, the “antagonist activity in cAMP assay, in words” value was “well tolerated”. Consider “SEQ ID NO:29 (WVTHRLAGLLSXSGGVVRKNFVPTDVGPFAF; CGRP peptide; MOD_RES (1)..(1): …ON; MISC_FEATURE (12)..(12): xaa=citrulline; MOD_RES (31)..(31): AMIDATION)”, for which the “antagonist activity in cAMP assay, in words” value is given as “well tolerated”.

The same assay, now with this note: Table 2A; read-out: IC50.
Regarding `CC(=O)N[C@@H](Cc1c[nH]c2ccccc12)C(=O)N[C@H](C(=O)N[C@H](C(=O)N[C@@H](Cc1c[nH]cn1)C(=O)N[C@@H](CCCNC(N)=O)C(=O)N[C@@H](CC(C)C)C(=O)N[C@@H](C)C(=O)NCC(=O)N[C@@H](CC(C)C)C(=O)N[C@@H](CC(C)C)C(=O)N[C@@H](CO)C(=O)N[C@@H](CCCNC(N)=O)C(=O)N[C@@H](CO)C(=O)NCC(=O)NCC(=O)N[C@H](C(=O)N[C@H](C(=O)N[C@@H](CCCCNC(=N)N)C(=O)N[C@@H](CCCCN)C(=O)N[C@@H](CC(N)=O)C(=O)N[C@@H](Cc1ccccc1)C(=O)N[C@H](C(=O)N1CCC[C@H]1C(=O)N[C@H](C(=O)N[C@@H](CC(=O)O)C(=O)N[C@H](C(=O)NCC(=O)N1CCC[C@H]1C(=O)N[C@@H](Cc1ccccc1)C(N)=O)C(C)C)[C@@H](C)O)C(C)C)C(C)C)C(C)C)[C@@H](C)O)C(C)C` [compound 655] (Ac-WVTH[Cit]LAGLLS[Cit]SGGVV[hArg]KNFVPTDVGPF-NH2), the IC50 is greater than 1000 nM. On the same count and under the same terms, for `CC(=O)N[C@@H](Cc1c[nH]c2ccccc12)C(=O)N[C@H](C(=O)N[C@H](C(=O)N[C@@H](Cc1c[nH]cn1)C(=O)N[C@@H](CCCNC(N)=O)C(=O)N[C@@H](CC(C)C)C(=O)N[C@@H](C)C(=O)NCC(=O)N[C@@H](CC(C)C)C(=O)N[C@@H](CC(C)C)C(=O)N[C@@H](CO)C(=O)N[C@@H](CCCNC(N)=O)C(=O)N[C@@H](CO)C(=O)NCC(=O)NCC(=O)N[C@H](C(=O)N[C@H](C(=O)N[C@@H](CCCCNC(=N)N)C(=O)N[C@@H](CCCCN)C(=O)N[C@@H](CC(N)=O)C(=O)N[C@@H](Cc1ccccc1)C(=O)N[C@H](C(=O)N1[C@H](C(=O)N[C@H](C(=O)N[C@@H](CC(=O)O)C(=O)N[C@H](C(=O)NCC(=O)N2[C@H](C(=O)N[C@@H](Cc3ccccc3)C(=O)N[C@@H](C)C(=O)N[C@@H](Cc3ccc4ccccc4c3)C(N)=O)C[C@@H]3CCCC[C@@H]32)C(C)C)[C@@H](C)O)C[C@@H]2CCCC[C@@H]21)C(C)C)C(C)C)C(C)C)[C@@H](C)O)C(C)C` [compound 132] (Ac-WVTH[Cit]LAGLLS[Cit]SGGVV[hArg]KNFV[Oic]TDVG[Oic]FA[2Nal]-NH2) the value was 2.57 nM. Consider `CC(=O)N[C@@H](Cc1c[nH]c2ccccc12)C(=O)N[C@H](C(=O)N[C@H](C(=O)N[C@@H](Cc1c[nH]cn1)C(=O)N[C@@H](CCCNC(N)=O)C(=O)N[C@@H](CC(C)C)C(=O)N[C@@H](C)C(=O)NCC(=O)N[C@@H](CC(C)C)C(=O)N[C@@H](CC(C)C)C(=O)N[C@@H](CO)C(=O)N[C@@H](CCCNC(N)=O)C(=O)N[C@@H](CO)C(=O)NCC(=O)NCC(=O)N[C@H](C(=O)N[C@H](C(=O)N[C@@H](CCCCNC(=N)N)C(=O)N[C@@H](CCCCN)C(=O)N[C@@H](CC(N)=O)C(=O)N[C@@H](Cc1ccccc1)C(=O)N[C@H](C(=O)N1CCC[C@H]1C(=O)N[C@H](C(=O)N[C@@H](CC(=O)O)C(=O)N[C@H](C(=O)NCC(=O)NC1(C(=O)N[C@@H](Cc2ccccc2)C(=O)N[C@@H](C)C(=O)N[C@@H](Cc2ccccc2)C(N)=O)Cc2ccccc2C1)C(C)C)[C@@H](C)O)C(C)C)C(C)C)C(C)C)[C@@H](C)O)C(C)C` [compound 669], for which the concentration for half-maximal inhibition (IC50) lay in the range of 33.2 to 262 nM. On the same count and under the same terms, for `CC(=O)N[C@@H](Cc1c[nH]c2ccccc12)C(=O)N[C@H](C(=O)N[C@H](C(=O)N[C@@H](Cc1c[nH]cn1)C(=O)N[C@@H](CCCNC(N)=O)C(=O)N[C@@H](CC(C)C)C(=O)N[C@@H](C)C(=O)NCC(=O)N[C@@H](CC(C)C)C(=O)N[C@@H](CC(C)C)C(=O)N[C@@H](CO)C(=O)N[C@@H](CCCNC(N)=O)C(=O)N[C@@H](CO)C(=O)NCC(=O)NCC(=O)N[C@H](C(=O)N[C@H](C(=O)N[C@@H](Cc1ccc(NC(=N)N)cc1)C(=O)N[C@@H](CCCCN)C(=O)N[C@@H](CC(N)=O)C(=O)N[C@@H](Cc1ccccc1)C(=O)N[C@H](C(=O)N1CCC[C@H]1C(=O)N[C@H](C(=O)N[C@@H](CC(=O)O)C(=O)N[C@H](C(=O)NCC(=O)N1[C@H](C(=O)N[C@@H](Cc2ccccc2)C(=O)N[C@@H](C)C(=O)N[C@@H](Cc2ccccc2)C(N)=O)C[C@@H]2CCCC[C@@H]21)C(C)C)[C@@H](C)O)C(C)C)C(C)C)C(C)C)[C@@H](C)O)C(C)C` [compound 664] the value was 2.29 to 2.95 nM; for `CC(=O)N[C@@H](Cc1c[nH]c2ccccc12)C(=O)N[C@H](C(=O)N[C@H](C(=O)N[C@@H](Cc1cnc[nH]1)C(=O)N[C@@H](CCCNC(N)=O)C(=O)N[C@@H](CC(C)C)C(=O)N[C@@H](C)C(=O)NCC(=O)N[C@@H](CC(C)C)C(=O)N[C@@H](CC(C)C)C(=O)N[C@@H](CO)C(=O)N[C@@H](CCCNC(N)=O)C(=O)N[C@@H](CO)C(=O)NCC(=O)NCC(=O)N[C@H](C(=O)N[C@H](C(=O)N[C@@H](CCCCN=C(N)N)C(=O)N[C@@H](CCCCN)C(=O)N[C@@H](CC(N)=O)C(=O)N[C@@H](Cc1ccccc1)C(=O)N[C@H](C(=O)N1CCC[C@H]1C(=O)N[C@H](C(=O)N[C@@H](CC(=O)O)C(=O)N[C@H](C(=O)NCC(=O)N1CCC[C@H]1C(=O)N1Cc2ccccc2C[C@H]1C(=O)N[C@@H](C)C(=O)N[C@@H](Cc1ccccc1)C(N)=O)C(C)C)[C@@H](C)O)C(C)C)C(C)C)C(C)C)[C@@H](C)O)C(C)C` [compound 131] (Ac-WVTH[Cit]LAGLLS[Cit]SGGVV[hArg]KNFVPTDVGP[Tic]AF-NH2), 89.9 nM.

With `CC(=O)N[C@@H](Cc1c[nH]c2ccccc12)C(=O)N[C@H](C(=O)N[C@H](C(=O)N[C@@H](Cc1cnc[nH]1)C(=O)N[C@@H](CCCNC(N)=O)C(=O)N[C@@H](CC(C)C)C(=O)N[C@@H](C)C(=O)NCC(=O)N[C@@H](CC(C)C)C(=O)N[C@@H](CC(C)C)C(=O)N[C@@H](CO)C(=O)N[C@@H](CCCNC(N)=O)C(=O)N[C@@H](CO)C(=O)NCC(=O)NCC(=O)N[C@H](C(=O)N[C@H](C(=O)N[C@@H](CCCCNC(=N)N)C(=O)N[C@@H](CCCCN)C(=O)N[C@@H](CC(N)=O)C(=O)N[C@@H](Cc1ccccc1)C(=O)N[C@H](C(=O)N1CCC[C@H]1C(=O)N[C@H](C(=O)N[C@@H](CC(=O)O)C(=O)N[C@H](C(=O)NCC(=O)N(C)CC(=O)N[C@@H](Cc1ccccc1)C(=O)N[C@@H](C)C(=O)N[C@@H](Cc1ccccc1)C(N)=O)C(C)C)[C@@H](C)O)C(C)C)C(C)C)C(C)C)[C@@H](C)O)C(C)C` [compound 672], the IC50 was in the range of 3.19 to 4.42 nM.

The assay is the same for the next values; noted with them: Table 2C; unconjugated peptide; read-out: Peptide IC50.
In the case of `CC(=O)N[C@@H](Cc1c[nH]c2ccccc12)C(=O)N[C@H](C(=O)N[C@H](C(=O)N[C@@H](Cc1c[nH]cn1)C(=O)N[C@@H](CCCNC(N)=O)C(=O)N[C@@H](CC(C)C)C(=O)N[C@@H](C)C(=O)NCC(=O)N[C@@H](CC(C)C)C(=O)N[C@@H](CC(C)C)C(=O)N[C@@H](CO)C(=O)N[C@@H](CCCNC(N)=O)C(=O)N[C@@H](CO)C(=O)NCC(=O)NCC(=O)N[C@H](C(=O)N[C@H](C(=O)N[C@@H](CCCNC(=N)N)C(=O)N[C@@H](CCCCN)C(=O)N[C@@H](CC(N)=O)C(=O)N[C@@H](Cc1ccccc1)C(=O)N[C@H](C(=O)N1CCC[C@H]1C(=O)N[C@H](C(=O)N[C@@H](CC(=O)O)C(=O)N[C@H](C(=O)NCC(=O)N1[C@H](C(=O)N[C@@H](Cc2ccccc2)C(=O)N[C@@H](C)C(=O)N[C@@H](Cc2ccccc2)C(N)=O)C[C@@H]2CCCC[C@@H]21)C(C)C)[C@@H](C)O)C(C)C)C(C)C)C(C)C)[C@@H](C)O)C(C)C` [compound 920] (Ac-WVTH[Cit]LAGLLS[Cit]SGGVVRKNFVPTDVG[Oic]FAF-NH2), the IC50 worked out at 0.85 nM. On to `CC(=O)N[C@@H](Cc1c[nH]c2ccccc12)C(=O)N[C@H](C(=O)N[C@H](C(=O)N[C@@H](Cc1c[nH]cn1)C(=O)N[C@@H](CCCNC(=N)N)C(=O)N[C@@H](CC(C)C)C(=O)N[C@@H](C)C(=O)NCC(=O)N[C@@H](CC(C)C)C(=O)N[C@@H](CC(C)C)C(=O)N[C@@H](CO)C(=O)N[C@@H](CCCCNC(=N)N)C(=O)N[C@@H](CO)C(=O)NCC(=O)NCC(=O)N[C@H](C(=O)N[C@H](C(=O)N[C@@H](CCCNC(=N)N)C(=O)N[C@@H](CCCCN)C(=O)N[C@@H](CC(N)=O)C(=O)N[C@@H](Cc1ccccc1)C(=O)N[C@H](C(=O)N1CCC[C@H]1C(=O)N[C@H](C(=O)N[C@@H](CC(=O)O)C(=O)N[C@H](C(=O)NCC(=O)N1CCC[C@H]1C(=O)N[C@@H](Cc1ccccc1)C(=O)N[C@@H](C)C(=O)N[C@@H](Cc1ccccc1)C(N)=O)C(C)C)[C@@H](C)O)C(C)C)C(C)C)C(C)C)[C@@H](C)O)C(C)C` [compound 864], for which the half-inhibitory concentration (IC50) was 0.57 nM.
